Data taken from PubChem BioAssay AID330 (DTP/NCI, 2004).
“And” between values parts separate entries of the source, which are not always exact repeats. Identical values can stand only once. Toxic doses and inconclusive results are not listed. Rule for the calls: active = survival T/C of 150% or more; inactive = T/C below 125% in these data.

Tested on: P388 leukemia ip, CD2F1 mice, survival T/C
Assay: NCI In Vivo Anticancer Drug Screen. Data for tumor model P388 Leukemia (intraperitoneal) in CD2F1 (CDF1) mice
Settings: endpoint: median survival time, higher = longer survival
In short: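 Mice carrying the transplanted tumor received test compound or vehicle. Survival was recorded in each group, and the value is the treated-group measurement divided by that of the vehicle-treated control group.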

[1] = dose: 12.5 mg/kg/injection, schedule: Q01DX009 (ip), vehicle: saline with Tween-80
[2] = dose: 25.0 mg/kg/injection, schedule: Q01DX009 (ip), vehicle: saline with Tween-80
[3] = dose: 50.0 mg/kg/injection, schedule: Q01DX009 (ip), vehicle: saline with Tween-80
[4] = dose: 100.0 mg/kg/injection, schedule: Q01DX009 (ip), vehicle: saline with Tween-80
[5] = dose: 12.5 mg/kg/injection, schedule: Q01DX009 (ip), vehicle: Klucel (hydroxypropylcellulose) (HPC)
[6] = dose: 200.0 mg/kg/injection, schedule: Q01DX009 (ip), vehicle: saline with Tween-80
[7] = dose: 60.0 mg/kg/injection, schedule: Q01DX005 (ip), vehicle: saline with Tween-80
[8] = dose: 120.0 mg/kg/injection, schedule: Q01DX005 (ip), vehicle: saline with Tween-80
[9] = dose: 240.0 mg/kg/injection, schedule: Q01DX005 (ip), vehicle: saline with Tween-80
[10] = dose: 50.0 mg/kg/injection, schedule: Q01DX009 (ip), vehicle: saline
[11] = dose: 100.0 mg/kg/injection, schedule: Q01DX009 (ip), vehicle: saline
[12] = dose: 200.0 mg/kg/injection, schedule: Q01DX009 (ip), vehicle: saline
[13] = dose: 50.0 mg/kg/injection, schedule: Q01DX005 (ip), vehicle: Klucel (hydroxypropylcellulose) (HPC)
[14] = dose: 50.0 mg/kg/injection, schedule: Q01DX005 (ip), vehicle: saline with Tween-80
[15] = dose: 100.0 mg/kg/injection, schedule: Q01DX005 (ip), vehicle: saline with Tween-80
[16] = dose: 200.0 mg/kg/injection, schedule: Q01DX005 (ip), vehicle: saline with Tween-80

Measured: T/C

O=C(O)c1ccc(SSc2ccc(C(=O)O)cc2)cc1
inactive: [1] 97 % of control | [2] 106 % of control | [3] 103 % of control | [4] 111 % of control

CCOC(=O)C(CC(C)/C=N\Nc1ccccc1)(NC(C)=O)C(=O)OCC (stereo not given)
inactive: dose: 100.0 mg/kg/injection, schedule: Q01DX001 (ip), vehicle: Klucel (hydroxypropylcellulose) (HPC) 95 % of control | dose: 200.0 mg/kg/injection, schedule: Q01DX001 (ip), vehicle: Klucel (hydroxypropylcellulose) (HPC) 93 % of control | dose: 400.0 mg/kg/injection, schedule: Q01DX001 (ip), vehicle: Klucel (hydroxypropylcellulose) (HPC) 99 % of control

[Tl][S][Tl]
inactive: dose: 6.25 mg/kg/injection, schedule: Q01DX009 (ip), vehicle: Klucel (hydroxypropylcellulose) (HPC) 102 % of control | [5] 100 % of control

O=C(Nc1ccc(-c2cn3ccccc3n2)cc1)c1ccccc1O
inactive: [3] 88 % of control | [4] 87 % of control | [6] 101 % of control

CCCCCCC(C)OC(=O)OCCOCCOC(=O)OC(C)C(=O)OCCCC (stereo not given)
inactive: dose: 60.0 mg/kg/injection, schedule: Q01DX005 (ip), vehicle: saline 100 % of control | dose: 120.0 mg/kg/injection, schedule: Q01DX005 (ip), vehicle: saline 94 % of control | dose: 240.0 mg/kg/injection, schedule: Q01DX005 (ip), vehicle: saline 100 % of control

C=C(C)C(=O)c1ccc(C(=O)O)cc1
inactive: dose: 12.5 mg/kg/injection, schedule: Q04DX002 (ip), vehicle: saline with Tween-80 105 % of control | dose: 25.0 mg/kg/injection, schedule: Q04DX002 (ip), vehicle: saline with Tween-80 114 % of control | dose: 50.0 mg/kg/injection, schedule: Q04DX002 (ip), vehicle: saline with Tween-80 122 % of control

CCCCc1n(O)c(-c2ccccc2)c(C)[n+]1[O-]
inactive: [1] 100 % of control | [2] 92 % of control | [3] 88 % of control and 91 % of control

CC(=O)Nc1cc([N+]#N)ccc1S(=O)(=O)O
inactive: [3] 109 % of control | [4] 93 % of control | [6] 89 % of control

N#CC1Sc2ccccc2N1C(=O)Oc1ccccc1 (stereo not given)
inactive: [7] 102 % of control | [8] 106 % of control | [9] 106 % of control

CC/C(C=O)=C\NC(=O)Nc1ccccc1
inactive: dose: 100.0 mg/kg/injection, schedule: Q01DX001 (ip), vehicle: saline with Tween-80 97 % of control | dose: 200.0 mg/kg/injection, schedule: Q01DX001 (ip), vehicle: saline with Tween-80 101 % of control | dose: 400.0 mg/kg/injection, schedule: Q01DX001 (ip), vehicle: saline with Tween-80 98 % of control

Nc1cc(N)c(N=Nc2cccc3c(S(=O)(=O)O)cccc23)cc1N=Nc1cc([N+](=O)[O-])ccc1O
inactive: [10] 109 % of control | [11] 109 % of control | [12] 96 % of control

COc1ccc(-n2c(=O)[nH]c3ccccc3c2=O)cc1
inactive: [3] 108 % of control | [4] 100 % of control | [6] 104 % of control

COc1ccc2ccc3oc([N+](=O)[O-])cc3c2c1
inactive: [13] 108 % of control | dose: 100.0 mg/kg/injection, schedule: Q01DX005 (ip), vehicle: Klucel (hydroxypropylcellulose) (HPC) 119 % of control | dose: 400.0 mg/kg/injection, schedule: Q01DX005 (ip), vehicle: Klucel (hydroxypropylcellulose) (HPC) 92 % of control

CCCCN=C1NS(=O)(=O)c2ccccc21
inactive: [14] 103 % of control | [15] 107 % of control | [16] 103 % of control

CC1CCCN2C(=O)CN(c3ccccc3)CC(=O)N12 (stereo not given)
inactive: [14] 98 % of control | [15] 103 % of control | [16] 99 % of control

CSc1nc(Cl)cc(Sc2nc(N)nc3nc[nH]c23)n1
inactive: [5] 98 % of control | dose: 25.0 mg/kg/injection, schedule: Q01DX009 (ip), vehicle: Klucel (hydroxypropylcellulose) (HPC) 101 % of control and 107 % of control | dose: 50.0 mg/kg/injection, schedule: Q01DX009 (ip), vehicle: Klucel (hydroxypropylcellulose) (HPC) 123 % of control and 124 % of control

CCOC(=O)/C=C/c1c(Cl)n(C)c(=O)n(C)c1=O
inactive: dose: 7.5 mg/kg/injection, schedule: Q01DX005 (ip), vehicle: Klucel (hydroxypropylcellulose) (HPC) 102 % of control | dose: 15.0 mg/kg/injection, schedule: Q01DX005 (ip), vehicle: Klucel (hydroxypropylcellulose) (HPC) 100 % of control | dose: 30.0 mg/kg/injection, schedule: Q01DX005 (ip), vehicle: Klucel (hydroxypropylcellulose) (HPC) 100 % of control

CC1CN(C(=O)Nc2ccc(Cl)c(Cl)c2)C(=O)O1 (stereo not given)
inactive: dose: 100.0 mg/kg/injection, schedule: Q04DX003 (ip), vehicle: Klucel (hydroxypropylcellulose) (HPC) 101 % of control | dose: 200.0 mg/kg/injection, schedule: Q04DX003 (ip), vehicle: Klucel (hydroxypropylcellulose) (HPC) 99 % of control | dose: 400.0 mg/kg/injection, schedule: Q04DX003 (ip), vehicle: Klucel (hydroxypropylcellulose) (HPC) 100 % of control

C=CCOc1ccc2ccc(=O)oc2c1
inactive: dose: 50.0 mg/kg/injection, schedule: Q04DX003 (ip), vehicle: saline with Tween-80 109 % of control | dose: 100.0 mg/kg/injection, schedule: Q04DX003 (ip), vehicle: saline with Tween-80 104 % of control | dose: 200.0 mg/kg/injection, schedule: Q04DX003 (ip), vehicle: saline with Tween-80 101 % of control

N[C@@H](C[C@H]1CCC(=O)[C@@H]2O[C@H]12)C(=O)O
inactive: dose: 100.0 mg/kg/injection, schedule: Q04DX002 (ip), vehicle: saline 100 % of control | dose: 200.0 mg/kg/injection, schedule: Q04DX002 (ip), vehicle: saline 98 % of control | dose: 400.0 mg/kg/injection, schedule: Q04DX002 (ip), vehicle: saline 108 % of control | dose: 600.0 mg/kg/injection, schedule: Q04DX002 (ip), vehicle: saline 112 % of control

Nc1nnn(N)n1
inactive: dose: 100.0 mg/kg/injection, schedule: Q04DX003 (ip), vehicle: saline 92 % of control | dose: 200.0 mg/kg/injection, schedule: Q04DX003 (ip), vehicle: saline 100 % of control

Cc1ccc(NC(=O)C(=O)C(C#N)c2c(Cl)cccc2Cl)c(C)c1 (stereo not given)
inactive: [14] 102 % of control | [15] 105 % of control | [16] 105 % of control

C=CCN1Cc2ccccc2-c2ccccc2C1
inactive: [10] 94 % of control | [11] 106 % of control | [12] 108 % of control

NCCc1cc2ccccc2c2ccccc12
inactive: dose: 12.5 mg/kg/injection, schedule: Q01DX005 (ip), vehicle: Klucel (hydroxypropylcellulose) (HPC) 99 % of control | dose: 25.0 mg/kg/injection, schedule: Q01DX005 (ip), vehicle: Klucel (hydroxypropylcellulose) (HPC) 99 % of control | [13] 99 % of control and 95 % of control

CC(C)C(=O)CC(=O)CCC(=O)Nc1cccc(Cl)c1
inactive: [7] 105 % of control | [8] 102 % of control | [9] 107 % of control
